For assay [1], the system named is MDA-MB-231, human breast cancer cells. The assay can be described thus: Proliferation assay MDA-MB-231 (crystal violet, 4 days). It is filed as cell-based. Conditions: Homo sapiens, MDA-MB-231, 96 h, MDA-MB-231 cells, median, read-out: Prolif-MDA MB-231, IC50-[mol/l] (median). In short, it runs like this: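 Cells seeded at 4,000/well in medium with 10% FCS; after 24 h, compounds added at 0.01-10 µmol/L (0.1% DMSO) for 4 days. Glutaraldehyde-fixed, crystal violet-stained, absorbance at 595 nm normalized to zero-point plate (0%) and untreated cells (100%); IC50 by 4-parameter fit.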

The target in a further assay is T1, CDK2/CycE (Homo sapiens, UniProt P24941).
T1 construct: purchased ProQinase GmbH (Freiburg, Germany); host or cells: insect cells (Sf9)
The assay can be described thus: CDK2/CycE kinase assay (TR-FRET, 2 mM ATP). It is filed as biochemical. Conditions: 2 mM ATP (high ATP); median; read-out: CDK2/CyclinE, 2 mM ATP (high ATP), IC50 (median). In short, it runs like this:
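GST-tagged human CDK2 and CycE from Sf9 cells, about 10 ng/ml, pre-incubated 15 min at 22 °C with compound in Tris/HCl pH 8.0 buffer. Reaction with 2 mM ATP and 0.75 µM biotinylated peptide for 25 min at 22 °C. Phospho-RB antibody TR-FRET (665/620 nm ratio) read after 1 h; data normalised to no-inhibitor and no-enzyme controls.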
Background: TR-FRET usually uses a lanthanide donor and a delayed reading to cut background.

Assay [2] addresses T2, CDK12 (nuclear staining in CAL-120 cells) (Homo sapiens, UniProt Q9NYV4).
T2 construct: endogenous in cells; host or cells: CAL-120 human breast cancer cells (DSMZ ACC 459)
The assay can be described thus: CDK12 nuclear protein level: immunofluorescence/high content analysis (CAL-120). In kind it is cell-based. The following applies: for DC50: CAL-120 cells, 24 h, immunofluorescence, 50% reduction of nuclear CDK12 staining intensity, median, read-out: CDK12 degradation IF, DC50- [mol/l] (median); for (IC50 CDK12 high ATP) to (Degradation DC50 CDK12) ratio: ratio of IC50 CDK12 high ATP kinase assay to DC50 CDK12 degradation (IF, CAL-120). The method in brief:
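CAL-120 cells were treated with compound for 24 h at 37 °C, fixed with PFA and immunostained for CDK12. Nuclear CDK12 intensity was quantified by automated image analysis and normalized to DMSO and control. DC50 is the concentration giving 50% reduction of nuclear staining.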

pIC50: −log10 of the molar value.

T2 sequence (Q9NYV4 whole entry): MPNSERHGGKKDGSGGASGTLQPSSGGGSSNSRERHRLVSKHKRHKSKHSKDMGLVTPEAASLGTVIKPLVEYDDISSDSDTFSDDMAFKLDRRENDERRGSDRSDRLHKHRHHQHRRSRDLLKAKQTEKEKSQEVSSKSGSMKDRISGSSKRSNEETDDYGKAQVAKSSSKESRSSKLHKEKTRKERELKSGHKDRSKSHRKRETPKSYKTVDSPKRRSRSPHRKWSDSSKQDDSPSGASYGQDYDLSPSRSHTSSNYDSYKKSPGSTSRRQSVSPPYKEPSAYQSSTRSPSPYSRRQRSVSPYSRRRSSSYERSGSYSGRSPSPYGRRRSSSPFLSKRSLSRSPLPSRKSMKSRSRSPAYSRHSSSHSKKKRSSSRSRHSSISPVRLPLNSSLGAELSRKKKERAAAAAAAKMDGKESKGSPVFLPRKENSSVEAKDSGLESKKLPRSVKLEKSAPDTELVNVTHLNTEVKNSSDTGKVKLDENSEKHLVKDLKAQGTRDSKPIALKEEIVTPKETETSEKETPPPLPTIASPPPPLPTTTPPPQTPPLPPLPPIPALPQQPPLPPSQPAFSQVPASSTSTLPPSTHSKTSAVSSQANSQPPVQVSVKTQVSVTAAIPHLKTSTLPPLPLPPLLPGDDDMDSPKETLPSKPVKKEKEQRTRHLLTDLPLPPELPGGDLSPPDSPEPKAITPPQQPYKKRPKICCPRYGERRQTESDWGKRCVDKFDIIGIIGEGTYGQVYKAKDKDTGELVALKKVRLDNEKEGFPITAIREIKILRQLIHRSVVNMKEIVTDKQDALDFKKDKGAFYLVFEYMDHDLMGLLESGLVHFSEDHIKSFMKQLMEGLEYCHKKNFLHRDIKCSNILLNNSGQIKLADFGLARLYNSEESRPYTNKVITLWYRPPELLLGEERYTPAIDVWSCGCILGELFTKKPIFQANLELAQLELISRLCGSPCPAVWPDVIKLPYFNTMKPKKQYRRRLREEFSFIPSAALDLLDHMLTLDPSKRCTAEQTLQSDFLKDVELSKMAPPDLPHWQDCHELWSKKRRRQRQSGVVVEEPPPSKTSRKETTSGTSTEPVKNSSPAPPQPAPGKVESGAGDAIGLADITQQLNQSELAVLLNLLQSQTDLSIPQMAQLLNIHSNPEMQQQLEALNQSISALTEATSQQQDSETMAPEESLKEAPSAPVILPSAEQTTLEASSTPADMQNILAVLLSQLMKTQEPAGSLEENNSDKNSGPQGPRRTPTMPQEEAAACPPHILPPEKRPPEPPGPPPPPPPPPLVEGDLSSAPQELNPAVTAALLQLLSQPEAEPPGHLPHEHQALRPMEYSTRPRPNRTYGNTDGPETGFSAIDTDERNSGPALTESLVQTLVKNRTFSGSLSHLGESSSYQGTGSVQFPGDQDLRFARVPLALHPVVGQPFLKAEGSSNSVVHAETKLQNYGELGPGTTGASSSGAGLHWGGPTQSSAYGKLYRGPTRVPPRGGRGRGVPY
T2 sequence (O75909 whole entry partner): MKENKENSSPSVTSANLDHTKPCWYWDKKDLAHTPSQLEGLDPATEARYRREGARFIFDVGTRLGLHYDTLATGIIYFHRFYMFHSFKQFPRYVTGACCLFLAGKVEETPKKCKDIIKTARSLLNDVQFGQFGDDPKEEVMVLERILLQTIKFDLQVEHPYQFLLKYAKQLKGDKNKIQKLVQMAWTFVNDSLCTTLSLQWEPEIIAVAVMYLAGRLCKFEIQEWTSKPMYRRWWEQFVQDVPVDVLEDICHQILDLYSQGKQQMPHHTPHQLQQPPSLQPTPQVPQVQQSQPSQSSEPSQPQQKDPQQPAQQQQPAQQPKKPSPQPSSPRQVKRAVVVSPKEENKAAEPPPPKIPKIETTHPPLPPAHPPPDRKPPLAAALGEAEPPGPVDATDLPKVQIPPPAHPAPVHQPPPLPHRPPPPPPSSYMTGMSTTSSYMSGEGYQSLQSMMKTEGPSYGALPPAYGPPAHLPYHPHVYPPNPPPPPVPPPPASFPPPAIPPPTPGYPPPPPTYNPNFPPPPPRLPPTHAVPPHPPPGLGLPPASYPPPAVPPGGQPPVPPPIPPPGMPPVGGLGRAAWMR

Take `CN(CC(C)(C)O)c1nc(NCc2nc3cc(Cl)c(Cl)cc3[nH]2)n2ncc(C3CC3)c2n1` [Example 306, 1-[(8-cyclopropyl-4-{[(5,6-dichloro-1H-benzimidazol-2-yl)methyl]amino}pyrazolo[1,5-a][1,3,5]triazin-2-yl)(methyl)amino]-2-methylpropan-2-ol]: the values for the pIC50 (in assay [1]; at CDK2/CycE) were 8.11 and below 4.70, respectively. In assay [2], the DC50 was found to be 12.7 nM. Besides, in assay [2], the “(IC50 CDK12 high ATP) to (Degradation DC50 CDK12) ratio” value worked out at 146.
For the compound `Brc1cnn2c(NCc3nc4ccccc4[nH]3)nc(N3C[C@H]4CNC[C@H]4C3)nc12` [Example 283, N-[(1H-benzimidazol-2-yl)methyl]-8-bromo-2-[(3aR,6aS)-hexahydropyrrolo[3,4-c]pyrrol-2(1H)-yl]pyrazolo[1,5-a][1,3,5]triazin-4-amine], the pIC50 in assay [1] was 7.46. Also, the pIC50 at CDK2/CycE was 5.12. In addition, in assay [2], the DC50 worked out at 6.97 nM and the “(IC50 CDK12 high ATP) to (Degradation DC50 CDK12) ratio” value is given as 2630.
On the same counts, the results for `c1ccc2[nH]c(CNc3nc(N4C[C@@H]5CCCN[C@@H]5C4)nc4c(C5CC5)cnn34)nc2c1` [Example 249, N-[(1H-benzimidazol-2-yl)methyl]-8-cyclopropyl-2-[(4aS,7aS)-octahydro-6H-pyrrolo[3,4-b]pyridin-6-yl]pyrazolo[1,5-a][1,3,5]triazin-4-amine] are 7.39, below 4.70, 6.48 nM and above 2626.
On the same counts, the results for `CNC1CCN(c2nc(NCc3nc4ccccc4[nH]3)n3ncc(Br)c3n2)CC1` [Example 272, N-[(1H-benzimidazol-2-yl)methyl]-8-bromo-2-[4-(methylamino)piperidin-1-yl]pyrazolo[1,5-a][1,3,5]triazin-4-amine] are 7.56, 4.79, 7.24 nM and above 2761.
In the case of `COc1ccc2[nH]c(CNc3nc(N4CCOCC4)nc4c(C(F)(F)F)cnn34)nc2c1` [Example 257, N-[(5-methoxy-1H-benzimidazol-2-yl)methyl]-2-(morpholin-4-yl)-8-(trifluoromethyl)pyrazolo[1,5-a][1,3,5]triazin-4-amine], the pIC50 in assay [1] was 7.97. Besides, the pIC50 at CDK2/CycE was 4.79. Besides, in assay [2], the DC50 was determined as 3 nM and the “(IC50 CDK12 high ATP) to (Degradation DC50 CDK12) ratio” value was 39.
As for `CN(CC(C)(C)O)c1nc(NCc2nc3c(F)c(F)ccc3[nH]2)n2ncc(C3CC3)c2n1` [Example 292, 1-[(8-cyclopropyl-4-{[(4,5-difluoro-1H-benzimidazol-2-yl)methyl]amino}pyrazolo[1,5-a][1,3,5]triazin-2-yl)(methyl)amino]-2-methylpropan-2-ol], the pIC50 in assay [1] is 8.15. At CDK2/CycE, the pIC50 was below 5.28. Besides, in assay [2], the DC50 came to 0.878 nM and the “(IC50 CDK12 high ATP) to (Degradation DC50 CDK12) ratio” value was 758.
The like results for `CN1CCN(c2nc(NCc3nc4ccccc4[nH]3)n3ncc(C4CC4)c3n2)CC1` [Example 246, N-[(1H-benzimidazol-2-yl)methyl]-8-cyclopropyl-2-(4-methylpiperazin-1-yl)pyrazolo[1,5-a][1,3,5]triazin-4-amine] were, in that order, 6.92, below 4.70, 3 nM and above 4287.
Turning to `Brc1cnn2c(NCc3nc4ccccc4[nH]3)nc(N3C[C@@H]4CN[C@@H]4C3)nc12.O=C(O)C(F)(F)F` [Example 267, trifluoroacetic acid-N-[(1H-benzimidazol-2-yl)methyl]-8-bromo-2-[(1S,5S)-3,6-diazabicyclo[3.2.0]heptan-3-yl]pyrazolo[1,5-a][1,3,5]triazin-4-amine (1/1)], in assay [1], the pIC50 is 6.97. The pIC50 on CDK2/CycE was 4.79. Also, in assay [2], the DC50 is 31.9 nM and the “(IC50 CDK12 high ATP) to (Degradation DC50 CDK12) ratio” value is given as above 627.
The like results for `CN[C@@H]1CCN(c2nc(NCc3nc4ccccc4[nH]3)n3ncc(Br)c3n2)C1` [Example 253, N-[(1H-benzimidazol-2-yl)methyl]-8-bromo-2-[(3R)-3-(methylamino)pyrrolidin-1-yl]pyrazolo[1,5-a][1,3,5]triazin-4-amine] were, in that order, 7.48, 4.91, 0.875 nM and above 22856.
The like results for `Fc1ccc2[nH]c(CNc3nc(N4CCOCC4)nc4c(C5CCCC5)cnn34)nc2c1F` [Example 262, 8-cyclopentyl-N-[(4,5-difluoro-1H-benzimidazol-2-yl)methyl]-2-(morpholin-4-yl)pyrazolo[1,5-a][1,3,5]triazin-4-amine] were, in that order, 7.00, below 4.70, 11.4 nM and above 500.
The like results for `Brc1cnn2c(NCc3nc4ccccc4[nH]3)nc(N3CC4CCNC4C3)nc12` (stereo not shown) [Example 271, 2-(2,3,3a,4,6,6a-hexahydro-1H-pyrrolo[2,3-c]pyrrol-5-yl)-N-(1H-benzimidazol-2-ylmethyl)-8-bromo-pyrazolo[1,5-a][1,3,5]triazin-4-amine] were, in that order, 7.40, 5.00, 18.3 nM and above 1094.
With `Brc1cnn2c(NCc3nc4ccccc4[nH]3)nc(NCC3CC3)nc12` [Example 284, N^4-[(1H-benzimidazol-2-yl)methyl]-8-bromo-N^2-(cyclopropylmethyl)pyrazolo[1,5-a][1,3,5]triazine-2,4-diamine], in assay [1], the pIC50 is 7.13. For the same compound, at CDK2/CycE, the pIC50 was 5.70. Also, in assay [2], the DC50 came out at 48.5 nM and the “(IC50 CDK12 high ATP) to (Degradation DC50 CDK12) ratio” value amounted to 113.
The like results for `Cc1ccnc2[nH]c(CNc3nc(N4CCOCC4)nc4c(Br)cnn34)nc12` [Example 20, 8-bromo-N-[(7-methyl-3H-imidazo[4,5-b]pyridin-2-yl)methyl]-2-(morpholin-4-yl)pyrazolo[1,5-a][1,3,5]triazin-4-amine] were, in that order, 7.51, 5.76, 2.57 nM and 681.
Regarding `Brc1cnn2c(NCc3nc4ccccc4[nH]3)nc(N3C[C@@H]4C[C@H]3CN4)nc12` [Example 270, N-[(1H-benzimidazol-2-yl)methyl]-8-bromo-2-[(1S,4S)-2,5-diazabicyclo[2.2.1]heptan-2-yl]pyrazolo[1,5-a][1,3,5]triazin-4-amine], in assay [1], the pIC50 is 7.65. Moreover, on CDK2/CycE, the pIC50 is 5.75. In assay [2], the DC50 was determined as 1.71 nM and the “(IC50 CDK12 high ATP) to (Degradation DC50 CDK12) ratio” value stood at 8023.
The like results for `FC(F)(F)Cc1cnn2c(NCc3nc4cc(Cl)ccc4[nH]3)nc(N3CCOCC3)nc12` [Example 299, N-[(5-chloro-1H-benzimidazol-2-yl)methyl]-2-(morpholin-4-yl)-8-(2,2,2-trifluoroethyl)pyrazolo[1,5-a][1,3,5]triazin-4-amine] were, in that order, 8.07, below 4.70, 7.77 nM and 822.
In the case of `NC1(C(F)(F)F)CCN(c2nc(NCc3nc4ccccc4[nH]3)n3ncc(Br)c3n2)C1` (stereo not shown) [Example 266, 2-[3-amino-3-(trifluoromethyl)pyrrolidin-1-yl]-N-(1H-benzimidazol-2-ylmethyl)-8-bromo-pyrazolo[1,5-a][1,3,5]triazin-4-amine], in assay [1], the pIC50 is 6.88. Moreover, on CDK2/CycE, the pIC50 is 5.68. Also, in assay [2], the DC50 was 52.4 nM and the “(IC50 CDK12 high ATP) to (Degradation DC50 CDK12) ratio” value came to 66.
